Converted amounts (≈) assume the structure as drawn. Where two headings read alike, the source gives them in different places.
Tests used:
[1] = tested on: Propionibacterium acnes ATCC #11827; assay: Antimicrobial susceptibility testing (MIC) by the agar dilution method; assay type: cell-based; settings: Cutibacterium acnes
[2] = tested on: acne lesions; settings: cited from earlier work
[3] = tested on: skin; assay: Cumulative irritation study (cream vehicle); assay type: in vivo; settings: different (cream) vehicle
[4] = tested on: patients with mild to moderate acne vulgaris; assay: Open label study of NV-02 in the topical treatment of mild to moderate acne vulgaris; assay type: in vivo, human; settings: after topical NV-02 twice daily; varied between and within patients
Description: The results were from a study of twenty patients (5 males, 15 females) who were enrolled with varying ethnicity: Caucasian(12), African American (6), Hispanic (1), and Asian (1). The age range was from 20 to 48 years (mean 29.6 years). All subjects received open-label PCL-016 10% gel to be applied twice daily to the face over 12 weeks.
The experiment was performed as indicated for the per protocol analysis described under FIG. 1 above.
22, 2002 • Date of last completed: May 2, 2003 • Methodology: Open label study • Number of patients (planned and analyzed): 15 patients planned, 20 enrolled, 15 completed. • Diagnosis and main criteria for inclusion: mild to moderate acne vulgaris • Test product, dose and mode of administration, batch number: NV-02 applied twice daily to affected areas of the face; Novactyl lot number 155 • Duration of treatment: twice daily for 3 months • Criteria for evaluation: • Efficacy: Total lesion counts, inflammatory lesion count, non-inflammatory lesion count, and Cunliffe's grade, FDA scale • Safety: Adverse events, PCL-0 16 plasma levels, serum chemistry, complete blood count • Statistical Methods: descriptive statistics of patient population, patient demographics, and lesion counts, etc.; changes in lesion counts relative to baseline; percent reduction in lesion counts. […]

Q: For `CCCCc1ccc(C(=O)O)nc1` [fusaric acid], which MIC ([1]; ATCC11827, read-out: Minimum Inhibitory Concentration (MIC): lowest concentration that visibly prevented growth) is on record?
A: 100 µg/mL (≈ 558 µM)

Q: Which results are given for `CC1=C(/C=C/C(C)=C/C=C/C(C)=C/C(=O)O)C(C)(C)CCC1` [Tretinoin]?
A: reduction of total lesions counts ([2]; topical agent on the market): 32-45%; photosensitization ([2]; topical): photosensitizing

Q: For `O=C(O)c1ccccn1` [Picolinic acid, pyridine-2-carboxylic acid], which MIC ([1]; ATCC11827, P. acnes ATCC #11827, Supplemented Brucella agar with blood, 48-72 hours at 35±2° C., anaerobic, read-out: Minimum Inhibitory Concentration (MIC): lowest concentration that visibly prevented growth) is on record?
A: 500 µg/mL (≈ 4060 µM)

Q: And the “risk of topical irritation to the skin” value [3]?
A: low risk of topical irritation

Q: And the “absorption into the systemic circulation (plasma levels)” value [4]?
A: Small amounts
